Results from ChEMBL document CHEMBL5550130, “Discovery of harmiprims, harmine-primaquine hybrids, as potent and selective anticancer and antimalarial compounds” (Bioorg Med Chem, 2024).
Active and inactive are the calls of the source. The rule behind the calls is not given here.

Tests used:
[1] = Selectivity index, ratio of IC50 for antiproliferative activity against human HEK293T cells to IC50 for antiproliferative activity against human MCF7 cells; type: toxicity, cell-based; conditions: HEK293T cells versus MCF7 cells, read-out: Ratio IC50
HCT-116 = assay: Antiproliferative activity against human HCT-116 cells assessed as reduction in cell viability incubated for 72 hrs by MTT assay; type: functional, cell-based; conditions: HCT-116, 72 h
Plasmodium falciparum [2] = assay: Antiplasmodial activity against erythrocytic stage of chloroquine-resistant Plasmodium falciparum Dd2 assessed as inhibition of parasite growth incubated for 3 days by HRP2-ELISA; type: functional, organism-based; conditions: Dd2, 72 h
MCF7 [3] = assay: Antiproliferative activity against human MCF7 cells assessed as reduction in cell viability incubated for 72 hrs by MTT assay; type: functional, cell-based; conditions: MCF7, 72 h
Plasmodium falciparum [4] = assay: Resistance index, ratio of IC50 for antiplasmodial activity against erythrocytic stage of chloroquine-resistant Plasmodium falciparum Dd2 to IC50 for antiplasmodial activity against erythrocytic stage of chloroquine-sensitive Plasmodium falciparum 3D7; type: functional
Plasmodium falciparum [5] = assay: Antiplasmodial activity against erythrocytic stage of chloroquine-sensitive Plasmodium falciparum 3D7 assessed as inhibition of parasite growth incubated for 3 days by HRP2-ELISA; type: functional, organism-based; conditions: 3D7, 72 h
SW-620 = assay: Antiproliferative activity against human SW620 cells assessed as reduction in cell viability incubated for 72 hrs by MTT assay; type: functional, cell-based; conditions: SW-620, 72 h
[6] = Selectivity index, ratio of IC50 for antiproliferative activity against human HEK293T cells to IC50 for antiplasmodial activity against erythrocytic stage of chloroquine-sensitive Plasmodium falciparum 3D7; type: toxicity, cell-based; conditions: read-out: Ratio IC50
[7] = Antiproliferative activity against human HEK293T cells assessed as reduction in cell viability incubated for 72 hrs by MTT assay; type: toxicity, cell-based, HEK-293T
RNA [8] = assay: Binding affinity to double stranded RNA (unknown origin) assessed as thermal stabilization by thermal denaturation based UV-Visible absorption spectroscopic analysis; type: nucleic-acid assay
Plasmodium berghei [9] = assay: Antiplasmodial activity against hepatic stage of Plasmodium berghei sporozoites infected in human Huh-7 cells assessed as reduction in parasite growth at 10 uM incubated for 1 hr by bioluminescence assay; type: functional, organism-based
MCF7 [10] = assay: Induction of cell cycle arrest in human MCF7 cells assessed as increase in accumulation of cells at G2/M phase at 4.5 uM measured upto 48 hrs by propidium iodide/RNAse A staining based cell sorter analysis; type: functional
RNA [11] = assay: Binding affinity to double stranded RNA (unknown origin) assessed as increase in fluorescence intensity by fluorescence quenching analysis; type: nucleic-acid assay
Calf thymus DNA [12] = assay: Binding affinity to calf thymus DNA assessed as thermal stabilization by thermal denaturation based UV-Visible absorption spectroscopic analysis; conditions: Bos taurus
Plasmodium berghei [13] = assay: Antiplasmodial activity against hepatic stage of Plasmodium berghei sporozoites infected in human Huh-7 cells assessed as reduction in parasite growth at 1 uM incubated for 1 hr by bioluminescence assay; type: functional, organism-based
Calf thymus DNA [14] = assay: Binding affinity to calf thymus DNA assessed as binding constant by UV-Visible absorption spectroscopic analysis; conditions: Bos taurus
RNA [15] = assay: Binding affinity to double stranded RNA (unknown origin) by CD spectroscopic analysis; type: nucleic-acid assay
HepG2 = assay: Antiproliferative activity against human HepG2 cells assessed as reduction in cell viability incubated for 72 hrs by MTT assay; type: functional, cell-based; conditions: HepG2, 72 h
[16] = Drug uptake in human MCF7 cells at 10 uM incubated for 30 mins by fluorescence microscopic analysis; type: ADME, cell-based; conditions: mcf7, 0.5 h
dsDNA [17] = assay: Binding affinity to double stranded DNA (unknown origin) assessed as increase in fluorescence intensity by fluorescence quenching analysis; type: nucleic-acid assay
Plasmodium berghei [18] = assay: Antiplasmodial activity against hepatic stage of Plasmodium berghei sporozoites infected in human Huh-7 cells assessed as inhibition of parasite growth incubated for 1 hr by bioluminescence assay; type: functional, organism-based; conditions: Huh-7, 1 h
MCF7 [19] = assay: Induction of cell cycle arrest in human MCF7 cells assessed as increase in accumulation of cells at G1 phase at 4.5 uM measured upto 48 hrs by propidium iodide/RNAse A staining based cell sorter analysis; type: functional
RNA [20] = assay: Binding affinity to double stranded RNA (unknown origin) assessed as binding constant by UV-Visible absorption spectroscopic analysis; type: nucleic-acid assay
dsDNA [21] = assay: Binding affinity to double stranded DNA (unknown origin) by CD spectroscopic analysis; type: nucleic-acid assay
Plasmodium falciparum [22] = assay: Gametocytocidal activity against gametocytes of Plasmodium falciparum NF54 assessed as inhibition of ATP production measured after 48 hrs by Bac-TiterGlo analysis; type: functional, organism-based; conditions: NF54, 48 h
MCF7 [23] = assay: Induction of cell cycle arrest in human MCF7 cells assessed as decrease in accumulation of cells at S phase at 0.75 uM measured after 24 hrs by propidium iodide/RNAse A staining based cell sorter analysis; type: functional
[24] = Drug uptake in human MCF7 cells at 1 uM incubated for 30 mins by Mitotracker Deep Red staining confocal microscopic analysis; type: ADME, cell-based; conditions: mcf7, 0.5 h
MCF7 [25] = assay: Induction of cell cycle arrest in human MCF7 cells assessed as increase in accumulation of cells at G2/M phase at 0.75 uM measured upto 48 hrs by propidium iodide/RNAse A staining based cell sorter analysis; type: functional
MCF7 [26] = assay: Induction of cell cycle arrest in human MCF7 cells assessed as increase in accumulation of cells at G1 phase at 0.75 uM measured after 48 hrs by propidium iodide/RNAse A staining based cell sorter analysis; type: functional
Huh-7 [27] = assay: Cytotoxicity against human Huh-7 cells infected with Plasmodium berghei sporozoites at 1 uM by alamar blue staining based assay; type: functional, cell-based
MCF7 [28] = assay: Induction of cell cycle arrest in human MCF7 cells assessed as increase in accumulation of cells at G1 phase at 0.75 uM measured after 24 hrs by propidium iodide/RNAse A staining based cell sorter analysis; type: functional
Huh-7 [29] = assay: Cytotoxicity against human Huh-7 cells infected with Plasmodium berghei sporozoites at 10 uM by alamar blue staining based assay; type: functional, cell-based
[30] = Drug uptake in human MCF7 cells at 10 uM incubated for 1 hr by fluorescence microscopic analysis; type: ADME, cell-based; conditions: mcf7, 1 h

Compound | selectivity ratio [1] | IC50 (HCT-116) [µM] | IC50 (Plasmodium falciparum [2]) [µM] | IC50 (MCF7 [3]) [µM] | Ratio IC50 (Plasmodium falciparum [4]) | IC50 (Plasmodium falciparum [5]) [µM] | IC50 (SW-620) [µM] | selectivity ratio [6] | IC50 at 72 h [7] [µM] | IC50 (HepG2) [µM] | also measured
COc1cc(NC(C)CCCN)c2ncccc2c1 (stereo unspecified) [PRIMAQUINE] | 1.42 | 20.8 | 5.45 | 26.6 | 1.12 | 4.87 | 9.2 | 7.7 | 37.6 | – | –
COc1cc(NC(C)CCCn2cc(Cn3c4cc(OC)ccc4c4ccnc(C)c43)nn2)c2ncccc2c1 (stereo unspecified) | > 5.6 | 23.2 | 0.906 | 8.93 | 1.73 | 0.523 | > 50 | > 95.5 | > 50 | > 50 | Activity (RNA [8]): inactive; Activity (Plasmodium berghei [9]): Active; Activity (MCF7 [10]): inactive; Activity (RNA [11]): Active; Activity (Calf thymus DNA [12]): inactive; Activity (Plasmodium berghei [13]): Active; log Ks (Calf thymus DNA [14]): 5.5; Activity (RNA [15]): inactive; Drug uptake [16]: Active; Activity (dsDNA [17]): Active; IC50 (Plasmodium berghei [18]): 1.46 µM; Activity (MCF7 [19]): Active; log Ks (RNA [20]): 4.6; Activity (dsDNA [21]): inactive
COc1cc(NC(C)CCCNC(=O)NCc2cc3c([nH]c4ccccc43)c(C)n2)c2ncccc2c1 (stereo unspecified) | > 4.29 | 27.2 | 2.35 | 11.7 | 0.98 | 2.4 | 25 | > 20.8 | > 50 | > 50 | –
CC[C@H](C)[C@H](NC(=O)[C@H]([C@@H](C)CC)N(C)C(C)=O)C(=O)N[C@H](C(=O)N[C@@H](CC(C)C)C(=O)[C@@]1(C)CO1)[C@@H](C)O [EPOXOMYCIN] | – | – | – | – | – | – | – | – | – | – | IC50 (Plasmodium falciparum [22]): 0.0167 µM
COc1cc(NC(C)CCCNC(=O)NCCn2c3cc(OC)ccc3c3ccnc(C)c32)c2ncccc2c1 (stereo unspecified) | 1.39 | 10.6 | 1.1 | 9.15 | 1.57 | 0.702 | 9.93 | 18.1 | 12.7 | 12.3 | –
COc1cc(NC(C)CCCNC(=O)NCCOc2ccc3[nH]c4c(C)nccc4c3c2)c2ncccc2c1 (stereo unspecified) | 0.84 | 7.79 | 8.84 | 14.2 | 0.83 | 10.7 | 10.6 | 1.1 | 12 | 10.9 | –
COc1cc(NC(C)CCCNC(=O)NCc2nccc3c2[nH]c2ccccc23)c2ncccc2c1 (stereo unspecified) | < 0.48 | 0.94 | 6.13 | 1.43 | 1.31 | 4.7 | 2.48 | 0.1 | 0.68 | 0.69 | Activity (RNA [8]): inactive; Activity (Plasmodium berghei [9]): Active; Activity (RNA [11]): Active; Activity (Calf thymus DNA [12]): inactive; Activity (Plasmodium berghei [13]): Active; Activity (MCF7 [23]): Active; Drug uptake [24]: Not Active; Activity (MCF7 [25]): inactive; log Ks (Calf thymus DNA [14]): 5.5; Activity (RNA [15]): inactive; Activity (MCF7 [26]): Active; Activity (dsDNA [17]): Active; Activity (Huh-7 [27]): Active; log Ks (RNA [20]): 4.2; Activity (MCF7 [28]): Active; Activity (Huh-7 [29]): Active; Activity (dsDNA [21]): inactive
COc1cc(NC(C)CCCn2cc(COc3ccc4c(c3)[nH]c3c(C)nccc34)nn2)c2ncccc2c1 (stereo unspecified) | 1.28 | 7.31 | 0.353 | 5.93 | 1.67 | 0.211 | 6.99 | 36 | 7.62 | 7.87 | –
COc1cc(NC(C)CCCNC(=O)NCCOc2ccc3c(c2)[nH]c2c(C)nccc23)c2ncccc2c1 (stereo unspecified) | 0.86 | 7.71 | 8.07 | 8.87 | 1.2 | 6.77 | 7.59 | 1.1 | 7.63 | 7.97 | –
CN(C)c1ccc2nc3ccc(N(C)C)cc3[s+]c2c1 [METHYLENE BLUE ANHYDROUS] | – | – | – | – | – | – | – | – | – | – | IC50 (Plasmodium falciparum [22]): 0.506 µM
COc1cc(NC(C)CCCn2cc(COc3ccc4[nH]c5c(C)nccc5c4c3)nn2)c2ncccc2c1-c1c(OC)cc(NC(C)CCCn2cc(COc3ccc4[nH]c5c(C)nccc5c4c3)nn2)c2ncccc12 (stereo unspecified) | – | > 50 | 0.0172 | > 100 | 1.12 | 0.0154 | > 50 | > 3250 | > 50 | > 50 | Activity (RNA [8]): inactive; Activity (Plasmodium berghei [9]): Active; Activity (RNA [11]): Active; Activity (Calf thymus DNA [12]): inactive; Activity (Plasmodium berghei [13]): Active; IC50 (Plasmodium falciparum [22]): 0.0905 µM; log Ks (Calf thymus DNA [14]): 5.8; Activity (RNA [15]): inactive; Activity (dsDNA [17]): Active; IC50 (Plasmodium berghei [18]): 0.036 µM; Activity (Huh-7 [27]): inactive; Activity (Huh-7 [29]): inactive; Drug uptake [30]: Not Active; Activity (dsDNA [21]): inactive
COc1cc(NC(C)CCCn2cc(-c3cc4c([nH]c5ccccc54)c(C)n3)nn2)c2ncccc2c1 (stereo unspecified) | > 3.46 | 18.3 | 0.632 | 14.5 | 0.74 | 0.857 | 15.8 | > 58.3 | > 50 | > 50 | –
COc1cc(NC(C)CCCn2cc(COc3ccc4[nH]c5c(C)nccc5c4c3)nn2)c2ncccc2c1 (stereo unspecified) | 2.67 | 18.2 | 0.895 | 9.45 | 2.11 | 0.425 | 8.94 | – | 25.2 | 6.67 | Activity (RNA [8]): inactive; Activity (RNA [11]): inactive; Activity (Calf thymus DNA [12]): inactive; log Ks (Calf thymus DNA [14]): 3.4; Activity (RNA [15]): inactive; Drug uptake [16]: Active; Activity (dsDNA [17]): inactive; log Ks (RNA [20]): 3.4; Activity (dsDNA [21]): inactive
COc1cc(NC(C)CCCn2cc(-c3nccc4c3[nH]c3ccccc34)nn2)c2ncccc2c1 (stereo unspecified) | < 0.51 | 10.2 | 4.48 | > 50 | 1.77 | 2.52 | 14.1 | 10 | 25.3 | > 50 | –
COc1ccc2c(c1)[nH]c1c(C)nccc12 [HARMINE] | 1.55 | 7.64 | > 27.7 | – | >3.36 | – | 7.32 | 2.5 | 21 | 14.9 | –
O=c1[nH]cc(F)c(=O)[nH]1 [FLUOROURACIL] | 0.74 | 14.4 | – | 23.9 | – | – | – | – | 17.6 | 5.46 | –
